Laboratory results as given in PubChem BioAssay (NCI).
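The compound was tested at five concentrations on cells cultured in 96-well plates, with a 48-hour exposure period. The concentration for 50% growth inhibition is given as GI50. At the TGI there is no net growth.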

Tests used:
Assay in all cases: NCI tumour cell line growth inhibition, 48 h
[1] = tested on: 786-0 renal
[2] = tested on: A498 renal
[3] = tested on: A549 NSCLC
[4] = tested on: ACHN renal
[5] = tested on: BT-549 breast
[6] = tested on: CAKI-1 renal
[7] = tested on: CCRF-CEM leukemia
[8] = tested on: COLO 205 colon
[9] = tested on: DU-145 prostate
[10] = tested on: EKVX NSCLC
[11] = tested on: HCC-2998 colon
[12] = tested on: HCT-116 colon
[13] = tested on: HCT-15 colon
[14] = tested on: HL-60(TB) leukemia
[15] = tested on: HOP-62 NSCLC
[16] = tested on: HOP-92 NSCLC
[17] = tested on: HS 578T breast
[18] = tested on: HT29 colon
[19] = tested on: IGROV1 ovarian
[20] = tested on: K-562 leukemia
[21] = tested on: KM12 colon
[22] = tested on: LOX IMVI melanoma
[23] = tested on: M14 melanoma
[24] = tested on: MALME-3M melanoma
[25] = tested on: MCF7 breast
[26] = tested on: MDA-MB-231 breast
[27] = tested on: MDA-MB-435
[28] = tested on: MOLT-4 leukemia
[29] = tested on: NCI-H23 lung

CN1CCN(Cc2ccc(NC(=O)c3cncc(C#Cc4c(N)ncc5ccccc45)c3)cc2C(F)(F)F)CC1
GI50 [1]: 890 nM
TGI [1]: 1660 nM
GI50 [2]: 676 nM
TGI [2]: 1350 nM
GI50 [3]: 668 nM
TGI [3]: 1450 nM
GI50 [4]: 569 nM
TGI [4]: 1170 nM
GI50 [5]: 1620 nM
TGI [5]: 4700 nM
GI50 [6]: 765 nM
TGI [6]: 1440 nM
GI50 [7]: 140 nM
TGI [7]: 1470 nM
GI50 [8]: 213 nM
TGI [8]: 812 nM
GI50 [9]: 716 nM
TGI [9]: 1390 nM
GI50 [10]: 572 nM
TGI [10]: 1260 nM
GI50 [11]: 619 nM
TGI [11]: 1260 nM
GI50 [12]: 257 nM
TGI [12]: 892 nM
GI50 [13]: 293 nM
TGI [13]: 998 nM
GI50 [14]: 160 nM
TGI [14]: 781 nM
GI50 [15]: 733 nM
TGI [15]: 1660 nM
GI50 [16]: 158 nM
TGI [16]: 836 nM
GI50 [17]: 640 nM
TGI [17]: 1860 nM
GI50 [18]: 180 nM
TGI [18]: 1040 nM
GI50 [19]: 373 nM
TGI [19]: 1200 nM
GI50 [20]: 5 nM
TGI [20]: 715 nM
GI50 [21]: 5 nM
TGI [21]: 618 nM
GI50 [22]: 348 nM
TGI [22]: 979 nM
GI50 [23]: 203 nM
TGI [23]: 885 nM
GI50 [24]: 310 nM
TGI [24]: 979 nM
GI50 [25]: 198 nM
TGI [25]: 853 nM
GI50 [26]: 336 nM
TGI [26]: 1040 nM
GI50 [27]: 291 nM
TGI [27]: 968 nM
GI50 [28]: 276 nM
TGI [28]: 1370 nM
GI50 [29]: 656 nM
